Assay results taken from patent US20240246946A1, “MODULATORS OF TREX1” (Constellation Pharmaceuticals, Inc., priority 2021, published 2024).

Legend:
full length human TREX1 = target: T1, full length human TREX1 (Homo sapiens, UniProt Q9NSU2); experiment: hTREX1 Biochemical Assay (fluorescence, dsDNA substrate degradation); conditions: biochemical, read-out: hTREX1 IC50
T1 construct: N-terminally His-Tev tagged full length human TREX1; made in house; host or cells: E. coli
T1 sequence (Q9NSU2 1-314): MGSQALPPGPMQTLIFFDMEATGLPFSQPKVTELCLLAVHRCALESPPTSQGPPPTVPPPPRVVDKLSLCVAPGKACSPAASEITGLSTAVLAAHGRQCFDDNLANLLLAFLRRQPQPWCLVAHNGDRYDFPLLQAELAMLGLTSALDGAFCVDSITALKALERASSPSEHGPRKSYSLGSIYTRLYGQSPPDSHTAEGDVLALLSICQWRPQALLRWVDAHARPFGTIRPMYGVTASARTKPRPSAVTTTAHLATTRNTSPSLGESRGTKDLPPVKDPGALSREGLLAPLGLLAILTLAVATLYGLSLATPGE
Outline: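 Cleavage of 60 nM TEX615/quencher-labelled dsDNA in pH 7.4 Tris buffer with 5 mM MgCl2, 1.0% DMSO, run 18 hours at 25° C, EDTA-quenched; fluorescence read-out.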

full length mouse TREX1 = target: T2, full length mouse TREX1 (Mus musculus, UniProt Q91XB0); experiment: mTREX1 Biochemical Assay (fluorescence, dsDNA substrate degradation); conditions: biochemical, read-out: mTREX1 IC50
T2 construct: N-terminally His-Tev tagged full length mouse TREX1; made in house; host or cells: E. coli
T2 sequence (Q91XB0 1-314): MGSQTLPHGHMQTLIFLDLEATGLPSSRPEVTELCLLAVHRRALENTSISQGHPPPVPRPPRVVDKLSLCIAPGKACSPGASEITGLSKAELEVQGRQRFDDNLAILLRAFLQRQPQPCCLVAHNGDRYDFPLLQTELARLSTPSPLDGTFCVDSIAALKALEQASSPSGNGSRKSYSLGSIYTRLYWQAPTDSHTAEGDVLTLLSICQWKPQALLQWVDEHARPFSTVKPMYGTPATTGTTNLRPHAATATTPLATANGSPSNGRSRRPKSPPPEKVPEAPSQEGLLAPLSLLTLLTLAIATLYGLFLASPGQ
Outline: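 Reaction run 18 h at 25° C. with 60 nM TEX615/quencher-labelled dsDNA and 6 pM mouse TREX1 in Tris buffer (pH 7.4, 5 mM MgCl2, 1.0% DMSO), enzyme having sat 4 h with compound across 10 concentrations. EDTA quench; substrate degradation measured as fluorescence increase.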

hTREX1 = target: T3, hTREX1 (Homo sapiens, UniProt Q9NSU2); experiment: hTREX1 HCT116 Cell Assay (HCT116 dual cells, Lucia luciferase reporter of Type I interferon induction); type: cell-based; conditions: TREX1i 4 h before pBR322/BstNI transfection, read after 48 h
T3 construct: host or cells: HCT116 dual cells
T3 sequence (Q9NSU2 1-314): T1 sequence (Q9NSU2 1-314)
Source text: HCT116 dual cells (Invivogen, San Diego, CA, USA) are derived from the human HCT116 colorectal carcinoma cell line. Cells have been selected for the stable integration of SEAP and Luciferase reporter genes, which expression is under the control of 5 tandem response elements for NF-KB/AP1 and STAT1/STAT2, respectively. The cell line was used to monitor Type I interferon induction and subsequent signaling by measuring the activity of the Lucia luciferase secreted in the culture medium.
HCT116 cells were plated in 96-well plate(s) at 40,000 cells/well in 100 uL DMEM supplemented with 10% FBS and 25 mM Hepes (pH 7.2-7.5). After overnight settling, cells were treated with TREX1i for 4 h (maximum DMSO fraction was 0.1%) before 1 ug/mL pBR322/BstNI restriction digest (New England Biolabs, Ipswich, MA, USA) was transfected with Lipofectamine LTX (ThermoFisher, Grand Island, NY, USA), according to product manual recommendations. Briefly, Lipofectamine LTX (0.35 uL/well) was diluted in OptiMEM (5 uL/well). pBR322/BstNI (100 ng/well) was diluted in OptiMEM (5 uL/well) before Plus reagent (0.1 uL/100 ng DNA) was added. After 5 min incubation at room temperature, the DNA mixture was mixed dropwise with the diluted Lipofectamine LTX. After an additional 10 min incubation, the transfection mix (10 uL/well) was added to the cells. Cells were maintained at 37 C for 48 h before monitoring the Lucia Luciferase activity from the cell culture medium.

[1] = target: T4, human TREX2 (residues M44-A279) (Homo sapiens, UniProt Q9BQ50); experiment: hTREX2 Biochemical Assay (fluorescence, dsDNA substrate degradation); conditions: biochemical selectivity for hTREX1 vs hTREX2
T4 construct: human TREX2 (residues M44-A279, expressed in E. coli); made in house; host or cells: E. coli
T4 sequence (Q9BQ50 44-279 isoform Q9BQ50-1): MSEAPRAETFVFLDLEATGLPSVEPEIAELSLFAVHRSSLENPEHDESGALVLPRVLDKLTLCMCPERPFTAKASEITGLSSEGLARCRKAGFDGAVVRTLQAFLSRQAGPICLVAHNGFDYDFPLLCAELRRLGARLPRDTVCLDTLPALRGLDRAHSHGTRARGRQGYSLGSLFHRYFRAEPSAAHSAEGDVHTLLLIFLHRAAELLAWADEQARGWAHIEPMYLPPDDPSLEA
Outline: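 N-His-Tev E. coli enzyme (50 pM) pre-incubated with compound 4 h at 25 °C, then 60 nM TEX615/quencher dsDNA added; 18 h at 25 °C, pH 7.4 Tris buffer with 5 mM MgCl2, 1.0% DMSO. EDTA-quenched; fluorescence 570 ex/615 em from liberated fluorophore, 10-point dose-response.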

Structure (SMILES)	IC50 (full length human TREX1)	IC50 (full length mouse TREX1)	IC50 (hTREX1)	hTREX1 vs hTREX2 selectivity [1]
CC(c1nc(C(=O)Nc2cnoc2)c(O)c(=O)n1C)C(c1cnn(CCN2CCNCC2)c1)c1ccccc1C#N (single isomer, unassigned) [Example 31 D1E1]	< 1 nM	1 to 10 nM	> 100 nM	
CC(c1nc(C(=O)Nc2cnoc2)c(O)c(=O)n1C)C(c1cnn(C)c1)c1ccncc1C#N (single isomer, unassigned) [Example 8 D2E2]	1 to 10 nM	> 10 nM	> 100 nM	
CC(c1nc(C(=O)Nc2cnoc2)c(O)c(=O)n1C)C(c1cocn1)c1ccccc1C#N (single isomer, unassigned) [Example 50 D1E1]	1 to 10 nM	> 10 nM	> 100 nM	
CC(c1nc(C(=O)Nc2cnoc2)c(O)c(=O)n1C)C(c1ccccc1C#N)c1c(C#N)cnn1C (single isomer, unassigned) [Example 52 D2E1]	> 10 nM	> 10 nM	> 100 nM	
COC(C)(C)Cn1cc(C(c2ccccc2C#N)C(C)c2nc(C(=O)Nc3cnoc3)c(O)c(=O)n2C)cn1 (single isomer, unassigned) [Example 37 D1E1]	< 1 nM	1 to 10 nM	10 to 100 nM	
CC(c1nc(C(=O)Nc2cnoc2)c(O)c(=O)n1C)C(c1cnn(C)c1)c1cccnc1C#N (single isomer, unassigned) [Example 7 D1E1]	1 to 10 nM	> 10 nM	> 100 nM	
CCn1ncc(C(c2ccc(F)cc2C#N)C(C)c2nc(C(=O)Nc3cnoc3)c(O)c(=O)n2C)c1C (single isomer, unassigned) [Example 65 D1E1]	< 1 nM	< 1 nM	< 10 nM	
CC(c1nc(C(=O)Nc2cnoc2)c(O)c(=O)n1C)C(c1cnn(CC(C)(C)O)c1)c1ccccc1C#N (single isomer, unassigned) [Example 36 D1E1]	< 1 nM	1 to 10 nM	> 100 nM	
Cc1c(C(c2ccccc2C#N)C(C)c2nc(C(=O)Nc3cnoc3)c(O)c(=O)n2C)cnn1C (single isomer, unassigned) [Example 4 D1E1]	< 1 nM	1 to 10 nM	10 to 100 nM	
CC(c1nc(C(=O)Nc2cnoc2)c(O)c(=O)n1C)C(c1ncn(C)n1)c1ccccc1C#N (single isomer, unassigned) [Example 51 D1E2]	1 to 10 nM	> 10 nM	10 to 100 nM	
Cc1nn(C)cc1C(c1ccccc1C#N)C(C)c1nc(C(=O)Nc2cnoc2)c(O)c(=O)n1C (single isomer, unassigned) [Example 3 D2E2]	1 to 10 nM	> 10 nM	> 100 nM	
CC(c1nc(C(=O)Nc2cnoc2)c(O)c(=O)n1C)C(c1cnn(C)c1)c1cc(F)ccc1Cl (single isomer, unassigned) [Example 61 D1E1]	< 1 nM	1 to 10 nM	< 10 nM	
Cc1cnc(C)c(C(c2cc(F)ccc2C#N)C(C)c2nc(C(=O)Nc3cnoc3)c(O)c(=O)n2C)n1 (single isomer, unassigned) [Example 119 D1E1]			< 10 nM	
CC(c1nc(C(=O)Nc2cnoc2)c(O)c(=O)n1C)C(c1cnn(C)c1)c1cc(F)c(F)cc1Cl (single isomer, unassigned) [Example 28 D1E1]	< 1 nM	1 to 10 nM	10 to 100 nM	
Cc1ccnn1C(c1ccccc1C#N)C(C)c1nc(C(=O)Nc2cnoc2)c(O)c(=O)n1C (single isomer, unassigned) [Example 138 D1E2]	> 10 nM	> 10 nM		A (A = <25 fold selective for hTREX1)
CC(c1nc(C(=O)Nc2cnoc2)c(O)c(=O)n1C)C(c1cnn(C(F)(F)F)c1)c1ccccc1C#N (single isomer, unassigned) [Example 151 D1E2]	> 10 nM	> 10 nM		A (A = <25 fold selective for hTREX1)
CC(c1nc(C(=O)Nc2cnoc2)c(O)c(=O)n1C)C(c1cnn(C2COC2)c1)c1ccccc1C#N (single isomer, unassigned) [Example 106 D2E1]	> 10 nM	> 10 nM		B (B = 25 to 50-fold selective for hTREX1)
CC(c1nc(C(=O)Nc2cnoc2)c(O)c(=O)n1C)C(c1cocn1)c1ccccc1C#N (single isomer, unassigned) [Example 50 D2E1]	> 10 nM	> 10 nM		C (C = >50 fold selective for hTREX1)
CC(C)c1cnn(C(c2ccccc2Cl)C(C)c2nc(C(=O)Nc3cnoc3)c(O)c(=O)n2C)c1 (single isomer, unassigned) [Example 135 D1E2]	> 10 nM	> 10 nM		A (A = <25 fold selective for hTREX1)
COCCn1nc(C)c(C(c2cc(F)ccc2C#N)C(C)c2nc(C(=O)Nc3cnoc3)c(O)c(=O)n2C)c1C (single isomer, unassigned) [Example 110 D1E2]	> 10 nM	> 10 nM		A (A = <25 fold selective for hTREX1)
CC(c1nc(C(=O)Nc2cnoc2)c(O)c(=O)n1C)C(c1ccccc1Cl)n1cccn1 (single isomer, unassigned) [Example 45 D1E2]	> 10 nM	> 10 nM		A (A = <25 fold selective for hTREX1)
CC(c1nc(C(=O)Nc2cnoc2)c(O)c(=O)n1C)C(c1cnn(CC(F)F)c1)c1cc(F)ccc1C#N (single isomer, unassigned) [Example 102 D1E1]	> 10 nM	> 10 nM		A (A = <25 fold selective for hTREX1)
CC(c1nc(C(=O)Nc2cnoc2)c(O)c(=O)n1C)C(c1ccccc1C#N)c1nnnn1C (single isomer, unassigned) [Example 131 D1E1]	> 10 nM	> 10 nM		A (A = <25 fold selective for hTREX1)
Cc1cnc(C)c(C(c2ccccc2C#N)C(C)c2nc(C(=O)Nc3cnoc3)c(O)c(=O)n2C)n1 (single isomer, unassigned) [Example 82 D2E2]	> 10 nM	> 10 nM		B (B = 25 to 50-fold selective for hTREX1)
Cc1cn(C)nc1C(c1ccccc1C#N)C(C)c1nc(C(=O)Nc2cnoc2)c(O)c(=O)n1C (single isomer, unassigned) [Example 64 D2E1]	< 1 nM	1 to 10 nM		C (C = >50 fold selective for hTREX1)
Cc1ncc(C(c2cc(F)ccc2C#N)C(C)c2nc(C(=O)Nc3cnoc3)c(O)c(=O)n2C)nc1C (single isomer, unassigned) [Example 124 D2E2]	> 10 nM	> 10 nM		A (A = <25 fold selective for hTREX1)
